Measured values taken from patent publication US20030073097A1, “TRAF6-regulated IKK activators (TRIKA1 and TRIKA2) and their use as anti-inflammatory targets” (priority 2001, published 2003).
Peptide text beside a SMILES is read from it. * marks the point of attachment. Cbz = O=C(OCc1ccccc1)*

Legend:
[1] = test system: proteasome; details: 20 μM; Chen et al., 1995; cited from earlier work
[2] = molecular target: T1, IKK (Homo sapiens, UniProt O14920+O15111); experiment: In vitro assay for IKK activation by TRAF6 (IκBα phosphorylation); assay type: biochemical; details: inhibitor at 20 μM added to the assay
T1 construct: IKK complex was purified form HeLa cells or from calf thymus using ATP-Sepharose; endogenous in cells
Procedure: In vitro Assay for IKK Activation. To detect endogenous IKK activation, cell extracts (5 mg/ml) were incubated with TRAF6 (or, T6RZC, 0.1 μM) together with an ATP regenerating buffer (Chen et al., 1995). After incubation at 30° C. for 1 hour, the reaction was analyzed by immunoblotting with a phospho-IκBα specific antibody. To identify intermediary factors involved in TRAF6-mediated IKK activation, the inventors used a reconstitution assay by adding ^35S-IκBα (0.5 μl) and purified IKK complex (5 nM) to a 5 μl reaction mixture that also contains ATP (2 mM), TRAF6 (0.1 μM), and column fractions (0.5-1 μl). In most IKK activation assays, E1 (0.1 μM) and Ub (0.1 mM) were also added to enhance the reaction, although they can be supplied from the wheat germ extracts used for in vitro translation of IκBα. As an assay for purification of TRIKA1, reaction mixtures also contain 0.5 μg TRIKA2/FrIIa, a fraction eluted from Q-Sepharose with 0.2M NaCl. The reaction was carried out at 30° C. for 1 hour, and then analyzed using a PhosphorImager (Molecular Dynamics) following SDS-PAGE.

[3] = test system: T6RZC stable 293 cells; experiment: Coumermycin A-induced TRAF6-gyrase B (T6RZC) dimerization in stable 293 cells, IκBα degradation; assay type: cell-based, human; details: 293 cells stably expressing T6RZC; coumermycin A 1 μM
Procedure: Generation of TRAF6-gyraseB stable cell lines. The TRAF6-gyrase B fusion was constructed by replacing the C-terminal TRAF domain of TRAF6 (residues 1-358) with the N-terminal fragment of bacterial gyrase B (T6RZC). Another chimeric construct contained residues 1-291 of TRAF6 (T6RZ). These chimeras were cloned into the mammalian expression vector pEF-IRES-P (Deng et al., 2000). Following transfection of DNA into 293 cells, stable clones were selected in puromycin (1 μg/ml). To induce the dimerization of TRAF6 and subsequent activation of the JNK and IKK pathways, cells were treated with coumermycin A (1 μM) for different lengths of time, and then cell extracts prepared for further analysis.

T1 sequence (O14920 whole entry): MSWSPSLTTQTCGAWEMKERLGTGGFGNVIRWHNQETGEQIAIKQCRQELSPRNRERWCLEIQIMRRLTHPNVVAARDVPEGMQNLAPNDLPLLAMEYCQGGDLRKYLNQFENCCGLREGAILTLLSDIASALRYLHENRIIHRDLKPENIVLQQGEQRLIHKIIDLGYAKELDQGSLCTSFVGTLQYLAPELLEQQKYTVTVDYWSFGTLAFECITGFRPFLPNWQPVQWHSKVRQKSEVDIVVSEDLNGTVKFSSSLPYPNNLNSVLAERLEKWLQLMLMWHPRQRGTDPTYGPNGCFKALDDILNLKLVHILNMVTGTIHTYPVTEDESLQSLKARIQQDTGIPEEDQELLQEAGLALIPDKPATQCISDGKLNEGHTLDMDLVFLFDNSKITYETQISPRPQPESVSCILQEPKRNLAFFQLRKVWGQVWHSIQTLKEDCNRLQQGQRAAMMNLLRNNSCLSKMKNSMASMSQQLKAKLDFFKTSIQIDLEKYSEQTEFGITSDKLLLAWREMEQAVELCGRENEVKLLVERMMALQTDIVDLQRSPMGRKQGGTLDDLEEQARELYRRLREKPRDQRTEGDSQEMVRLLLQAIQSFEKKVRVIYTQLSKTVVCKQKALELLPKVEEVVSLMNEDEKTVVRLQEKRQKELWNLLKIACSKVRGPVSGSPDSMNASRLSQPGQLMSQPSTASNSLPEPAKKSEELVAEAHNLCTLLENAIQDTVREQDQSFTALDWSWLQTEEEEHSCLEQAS
T1 sequence (O15111 whole entry): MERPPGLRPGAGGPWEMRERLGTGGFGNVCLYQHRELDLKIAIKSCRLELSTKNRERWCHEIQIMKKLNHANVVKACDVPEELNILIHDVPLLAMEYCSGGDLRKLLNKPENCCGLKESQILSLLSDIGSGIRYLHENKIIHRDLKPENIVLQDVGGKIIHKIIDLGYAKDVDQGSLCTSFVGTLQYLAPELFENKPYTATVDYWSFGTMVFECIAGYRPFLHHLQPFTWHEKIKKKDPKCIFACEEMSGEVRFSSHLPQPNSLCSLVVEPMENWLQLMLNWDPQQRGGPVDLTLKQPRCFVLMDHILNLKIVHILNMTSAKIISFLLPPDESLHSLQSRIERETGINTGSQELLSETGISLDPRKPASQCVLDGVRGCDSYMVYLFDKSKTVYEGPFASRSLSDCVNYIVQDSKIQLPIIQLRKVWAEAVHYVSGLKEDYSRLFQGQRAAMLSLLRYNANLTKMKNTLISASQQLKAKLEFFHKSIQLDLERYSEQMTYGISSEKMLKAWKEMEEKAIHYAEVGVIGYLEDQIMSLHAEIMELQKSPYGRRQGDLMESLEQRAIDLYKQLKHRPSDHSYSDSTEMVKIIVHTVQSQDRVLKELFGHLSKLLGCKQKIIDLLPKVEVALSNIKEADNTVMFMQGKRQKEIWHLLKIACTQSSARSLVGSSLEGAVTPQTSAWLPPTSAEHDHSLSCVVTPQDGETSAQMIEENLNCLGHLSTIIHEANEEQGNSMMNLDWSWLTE
T1 sequence (Q9Y6K9 whole entry partner): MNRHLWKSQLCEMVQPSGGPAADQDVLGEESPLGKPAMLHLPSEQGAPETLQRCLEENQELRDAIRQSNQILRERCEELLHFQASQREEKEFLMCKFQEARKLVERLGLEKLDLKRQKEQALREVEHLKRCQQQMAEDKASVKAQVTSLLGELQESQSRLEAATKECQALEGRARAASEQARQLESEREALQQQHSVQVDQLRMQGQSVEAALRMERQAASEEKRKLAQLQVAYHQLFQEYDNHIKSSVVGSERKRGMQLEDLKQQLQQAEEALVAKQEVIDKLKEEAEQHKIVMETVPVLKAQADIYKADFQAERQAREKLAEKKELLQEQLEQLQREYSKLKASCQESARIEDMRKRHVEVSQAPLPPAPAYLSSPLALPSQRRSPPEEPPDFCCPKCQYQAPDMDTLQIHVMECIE

CC(C)C[C@@H](C=O)NC(=O)[C@H](CC(C)C)NC(=O)[C@H](CC(C)C)NC(=O)OCc1ccccc1 [MG132] (Cbz-Leu-Leu-Leu-aldehyde)
Block of proteasomal activity [1]: completely block | Inhibition of IKK activation by TRAF6 [2]: No inhibition

CO[C@H]1[C@H](OC(=O)c2ccc(C)[nH]2)[C@H](O)[C@@H](Oc2ccc3c(O)c(NC(=O)c4c[nH]c(C(=O)Nc5c(O)c6ccc(O[C@H]7OC(C)(C)[C@@H](OC)[C@H](OC(=O)c8ccc(C)[nH]8)[C@@H]7O)c(C)c6oc5=O)c4C)c(=O)oc3c2C)OC1(C)C [coumermycin A]
Degradation of IκBα upon addition of the dimerizer [3]: rapidly degraded

CC(=O)N[C@@H](CSC(=O)[C@]1([C@@H](O)C(C)C)NC(=O)[C@H](C)[C@@H]1O)C(=O)O [lactacystin]
Block of proteasomal activity [1]: completely block | Inhibition of IKK activation by TRAF6 [2]: No inhibition
